What all share (assay type): in vivo
Assay [1] relates to Alopecurus myosuroides. Kind of assay: Herbicidal pre-emergence action. To be noted: pre-emergence method, 80 g/ha, greenhouse, visual assessment vs untreated controls. An outline of the steps:
(§1)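 Visual percent effect relative to untreated controls (0% = like control, 100% = dead) assessed three weeks after treatment in the greenhouse. Compounds, as wettable powders in water (600 l/ha, 0.2% wetting agent), were sprayed at different amounts onto covering soil over seeds sown in sandy loam.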

Assay [2] deals with Echinocloa crus-galli. Kind of assay: Herbicidal pre-emergence action. To be noted: pre-emergence method, 80 g/ha, greenhouse, visual assessment vs untreated controls. An outline of the steps:
as §1

For assay [3], the system named is Lolium multiflorum. In words: Herbicidal pre-emergence action. To be noted: pre-emergence method, 80 g/ha, greenhouse, visual assessment vs untreated controls. An outline of the steps: as §1
The subject of assay [4] is Setaria viridis. In words: Herbicidal pre-emergence action. To be noted: pre-emergence method, 80 g/ha, greenhouse, visual assessment vs untreated controls. Put shortly: as §1
Assay [5] has as its system Alopecurus myosuroides. Kind of assay: Herbicidal post-emergence action. To be noted: post-emergence method, 80 g/ha. An outline of the steps: (§2)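 Greenhouse-grown weeds were treated post-emergence at the one-leaf stage, two to three weeks after sowing in sandy loam. Compounds formulated as WP were sprayed at various rates in 600 l/ha water with 0.2% wetting agent. Damage was scored visually after about three weeks versus untreated controls (0% = like control, 100% = dead).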

Assay [6] relates to Echinocloa crus-galli. Kind of assay: Herbicidal post-emergence action. The settings on record: post-emergence method, 80 g/ha. Put shortly: as §2
The subject of assay [7] is Lolium multiflorum. Kind of assay: Herbicidal post-emergence action. The settings on record: post-emergence method, 80 g/ha. An outline of the steps:
as §2

Assay [8] deals with Setaria viridis. Kind of assay: Herbicidal post-emergence action. The settings on record: post-emergence method, 80 g/ha. An outline of the steps: as §2
Assay [9] deals with monocotylidonous and dicotylidonous weed and crop plants. Kind of assay: Herbicidal pre-emergence action (other test plants). The settings on record: pre-emergence method, 80 g/ha, greenhouse, visual assessment vs untreated controls. Put shortly:
as §1

Assay [10] shares this test system. Kind of assay: Herbicidal post-emergence action (other test plants). The settings on record: post-emergence method, 80 g/ha. Put shortly:
as §2

SMILES strings stand for the structures.

On to `CCOC(=O)OC1=C(c2c(C)cc(C)cc2CC)C(=O)C2CC3(CC12)OCCCCO3` (racemic) [I-c-75], for which the “herbicidal effect ALOMY” value with Alopecurus myosuroides [1] worked out at 70%. Moreover, in the assay with Echinocloa crus-galli [2], the “herbicidal effect ECHCG” value is reported as 100%. In addition, the “herbicidal effect LOLMU” value in the assay on Lolium multiflorum [3] was found to be 100%. Moreover, the “herbicidal effect SETVI” value in the assay on Setaria viridis [4] was 60%. The “herbicidal effect against ALOMY (Alopecurus myosuroides)” value (“herbicidal effect against ALOMY” below) with Alopecurus myosuroides [5] stood at 60%. Besides, the “herbicidal effect against ECHCG (Echinochloa crus-galli)” value (shortened to “herbicidal effect against ECHCG”) in the assay on Echinocloa crus-galli [6] is on record as 100%. The “herbicidal effect against LOLMU (Lolium multiflorum)” value (“herbicidal effect against LOLMU” for short) with Lolium multiflorum [7] was determined as 100%. Also, the “herbicidal effect against SETVI (Setaria viridis)” value (“herbicidal effect against SETVI” below) in the assay on Setaria viridis [8] worked out at 100%. Moreover, the “herbicidal effect AVEFA” value in assay [9] stood at 60%. For the same molecule, the “herbicidal effect against AVEFA (Avena fatua)” value (from here on “herbicidal effect against AVEFA”) in assay [10] is reported as 50%.
Consider `CCc1cc(C)cc(CC)c1C1=C(O)C2CC(=NOC(C)(C)C)CC2C1=O` (stereo not drawn) [I-a-68], for which the “herbicidal effect ALOMY” value in the assay with Alopecurus myosuroides [1] is listed as 40%. The “herbicidal effect ECHCG” value in the assay on Echinocloa crus-galli [2] worked out at 50%. Further, in the assay on Lolium multiflorum [3], the “herbicidal effect LOLMU” value is 80%. Also, the “herbicidal effect SETVI” value in the assay with Setaria viridis [4] worked out at 0%. Further, the “herbicidal effect against ALOMY” value in the assay with Alopecurus myosuroides [5] amounted to 90%. Also, the “herbicidal effect against ECHCG” value in the assay on Echinocloa crus-galli [6] worked out at 100%. For the same molecule, the “herbicidal effect against LOLMU” value in the assay on Lolium multiflorum [7] was found to be 100%. Further, in the assay on Setaria viridis [8], the “herbicidal effect against SETVI” value stood at 40%. Moreover, in assay [9], the “herbicidal effect AVEFA” value came to 40%. Moreover, the “herbicidal effect against AVEFA” value in [10] came out at 0%.
For the molecule `CCOC1COC2(C[C@@H]3C(O)=C(c4c(CC)cc(C)cc4CC)C(=O)[C@@H]3C2)OC1` (relative stereo) [I-a-28], in the assay with Alopecurus myosuroides [1], the “herbicidal effect ALOMY” value is recorded as 100%. The “herbicidal effect ECHCG” value in the assay with Echinocloa crus-galli [2] turned out to be 100%. The “herbicidal effect LOLMU” value in the assay with Lolium multiflorum [3] is 100%. The “herbicidal effect SETVI” value in the assay with Setaria viridis [4] is on record as 90%. Further, the “herbicidal effect against ALOMY” value in the assay with Alopecurus myosuroides [5] is given as 100%. Further, the “herbicidal effect against ECHCG” value with Echinocloa crus-galli [6] is on record as 100%. Also, the “herbicidal effect against LOLMU” value in the assay with Lolium multiflorum [7] is listed as 100%. In addition, the “herbicidal effect against SETVI” value in the assay on Setaria viridis [8] was determined as 100%. Besides, in [9], the “herbicidal effect AVEFA” value is on record as 80%. Further, the “herbicidal effect against AVEFA” value in [10] was 100%.
Consider `CCc1cc(C)cc(CC)c1C1=C([O-])C2CC3(CC2C1=O)OCCO3.[Na+]` (stereo not drawn) [I-f-15], for which the “herbicidal effect ALOMY” value in the assay with Alopecurus myosuroides [1] is 100%. Moreover, the “herbicidal effect ECHCG” value in the assay with Echinocloa crus-galli [2] worked out at 100%. Also, in the assay on Lolium multiflorum [3], the “herbicidal effect LOLMU” value stood at 100%. The “herbicidal effect SETVI” value in the assay with Setaria viridis [4] is listed as 90%. Moreover, the “herbicidal effect against ALOMY” value with Alopecurus myosuroides [5] was determined as 80%. For the same molecule, the “herbicidal effect against ECHCG” value with Echinocloa crus-galli [6] is 100%. In addition, the “herbicidal effect against LOLMU” value with Lolium multiflorum [7] is 100%. In addition, in the assay with Setaria viridis [8], the “herbicidal effect against SETVI” value amounted to 100%. Also, the “herbicidal effect AVEFA” value in assay [9] turned out to be 60%. For the same molecule, the “herbicidal effect against AVEFA” value in assay [10] was found to be 90%.
`CCc1cc(C)cc(C)c1C1=C(O)C2CC3(CC2C1=O)OCCCCO3` (stereo not drawn) [I-a-61]: in the assay on Alopecurus myosuroides [1], the “herbicidal effect ALOMY” value is listed as 70%. Besides, the “herbicidal effect ECHCG” value in the assay on Echinocloa crus-galli [2] worked out at 80%. Further, in the assay with Lolium multiflorum [3], the “herbicidal effect LOLMU” value is reported as 100%. In the assay with Setaria viridis [4], the “herbicidal effect SETVI” value is listed as 60%. Also, the “herbicidal effect against ALOMY” value in the assay on Alopecurus myosuroides [5] is 90%. For the same molecule, the “herbicidal effect against ECHCG” value in the assay with Echinocloa crus-galli [6] was 100%. Besides, the “herbicidal effect against LOLMU” value with Lolium multiflorum [7] was determined as 100%. In the assay on Setaria viridis [8], the “herbicidal effect against SETVI” value is 90%. For the same molecule, the “herbicidal effect AVEFA” value in assay [9] turned out to be 60%. Besides, in [10], the “herbicidal effect against AVEFA” value turned out to be 90%.
Turning to `CCc1cc(C)cc(C)c1C1=C(OC(C)=O)C2CC3(COC(C)(C)O3)CC2C1=O` (stereo not drawn) [I-b-66], in the assay on Alopecurus myosuroides [1], the “herbicidal effect ALOMY” value came to 80%. Also, the “herbicidal effect ECHCG” value in the assay on Echinocloa crus-galli [2] came to 100%. For the same molecule, in the assay on Lolium multiflorum [3], the “herbicidal effect LOLMU” value worked out at 100%. Also, the “herbicidal effect SETVI” value in the assay on Setaria viridis [4] was 80%. For the same molecule, the “herbicidal effect against ALOMY” value with Alopecurus myosuroides [5] is reported as 100%. Also, the “herbicidal effect against ECHCG” value in the assay on Echinocloa crus-galli [6] worked out at 100%. The “herbicidal effect against LOLMU” value in the assay with Lolium multiflorum [7] stood at 100%. In addition, the “herbicidal effect against SETVI” value in the assay with Setaria viridis [8] is 80%. In assay [9], the “herbicidal effect AVEFA” value was determined as 80%. The “herbicidal effect against AVEFA” value in assay [10] is 90%.

The values are drawn from patent US8367873B2, “Phenyl-substituted bicyclooctane-1,3-dione derivatives” (Bayer Cropscience AG, priority 2008, dated 2013).
